Data as given in PubChem BioAssay (NCI).
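Five compound concentrations were applied to cells in 96-well plates for 48 hours; endpoints were derived by simple linear interpolation of the resulting dose-response curve. TGI: total growth inhibition.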

How the values were obtained:
Test in all cases: NCI anticancer screen, dose series, 48 h
[1] = test system: A498 renal
[2] = test system: NCI-H522 lung
[3] = test system: TK-10 renal
[4] = test system: U251 CNS
[5] = test system: UO-31 renal
[6] = test system: SF-268 CNS
[7] = test system: KM12 colon
[8] = test system: M19-MEL melanoma
[9] = test system: UACC-62 melanoma
[10] = test system: K-562 leukemia
[11] = test system: HL-60(TB) leukemia
[12] = test system: HOP-62 NSCLC
[13] = test system: CCRF-CEM leukemia
[14] = test system: SR leukemia
[15] = test system: DMS 273 small cell lung
[16] = test system: NCI-H23 lung
[17] = test system: SNB-19 CNS
[18] = test system: HOP-92 NSCLC
[19] = test system: HT29 colon
[20] = test system: SNB-78 CNS
[21] = test system: EKVX NSCLC
[22] = test system: OVCAR-5 ovarian
[23] = test system: NCI-H226 lung
[24] = test system: IGROV1 ovarian
[25] = test system: RXF 393 renal
[26] = test system: MOLT-4 leukemia
[27] = test system: NCI-H460 lung
[28] = test system: SK-MEL-28 melanoma
[29] = test system: M14 melanoma
[30] = test system: SK-OV-3 ovarian
[31] = test system: A549 NSCLC
[32] = test system: SK-MEL-5 melanoma
[33] = test system: SW-620 colon
[34] = test system: LXFL 529 NSCLC
[35] = test system: SNB-75 CNS
[36] = test system: OVCAR-3 ovarian
[37] = test system: SF-539 CNS
[38] = test system: SN12C renal
[39] = test system: COLO 205 colon
[40] = test system: SF-295 CNS
[41] = test system: RPMI-8226 leukemia
[42] = test system: MALME-3M melanoma
[43] = test system: KM20L2 colon
[44] = test system: DMS 114 small cell lung
[45] = test system: HCT-116 colon
[46] = test system: UACC-257 melanoma
[47] = test system: OVCAR-8 ovarian
[48] = test system: OVCAR-4 ovarian
[49] = test system: SK-MEL-2 melanoma
[50] = test system: 786-0 renal
[51] = test system: ACHN renal
[52] = test system: HCT-15 colon
[53] = test system: DU-145 prostate
[54] = test system: LOX IMVI melanoma
[55] = test system: MDA-N
[56] = test system: CAKI-1 renal
[57] = test system: PC-3 prostate
[58] = test system: MDA-MB-231 breast
[59] = test system: NCI/ADR-RES ovarian
[60] = test system: HCC-2998 colon
[61] = test system: HS 578T breast
[62] = test system: T-47D breast
[63] = test system: MDA-MB-435
[64] = test system: BT-549 breast
[65] = test system: MCF7 breast

N#CC1Sc2ccccc2-n2cccc21 (stereo not drawn)
TGI [1]: > 100 µM | TGI [2]: > 100 µM | TGI [3]: > 100 µM | TGI [4]: > 100 µM | TGI [5]: 93.3 µM | TGI [6]: 78.2 µM | TGI [7]: > 100 µM | TGI [8]: > 100 µM | TGI [9]: 99.2 µM | TGI [10]: 95.5 µM | TGI [11]: 61.6 µM | TGI [12]: > 100 µM | TGI [13]: > 100 µM | TGI [14]: > 100 µM | TGI [15]: > 100 µM | TGI [16]: > 100 µM | TGI [17]: > 100 µM | TGI [18]: > 100 µM | TGI [19]: > 100 µM | TGI [20]: > 100 µM | TGI [21]: > 100 µM | TGI [22]: > 100 µM | TGI [23]: 87.6 µM | TGI [24]: > 100 µM | TGI [25]: 67.3 µM | TGI [26]: > 100 µM | TGI [27]: > 100 µM | TGI [28]: > 100 µM | TGI [29]: > 100 µM | TGI [30]: > 100 µM | TGI [31]: > 100 µM

COc1ccc(C2C(Cl)C(=O)N2NC(=O)c2ccccc2O)cc1 (stereo not drawn)
TGI [32]: > 100 µM | TGI [2]: > 100 µM | TGI [3]: > 100 µM | TGI [4]: > 100 µM | TGI [5]: > 100 µM | TGI [6]: > 100 µM | TGI [33]: > 100 µM | TGI [7]: > 100 µM | TGI [34]: > 100 µM | TGI [35]: > 100 µM | TGI [8]: > 100 µM | TGI [36]: > 100 µM | TGI [9]: > 100 µM | TGI [37]: > 100 µM | TGI [10]: > 100 µM | TGI [11]: > 100 µM | TGI [12]: > 100 µM | TGI [38]: > 100 µM | TGI [13]: > 100 µM | TGI [14]: > 100 µM | TGI [16]: > 100 µM | TGI [39]: > 100 µM | TGI [17]: > 100 µM | TGI [40]: > 100 µM | TGI [41]: > 100 µM | TGI [42]: > 100 µM | TGI [18]: > 100 µM | TGI [19]: > 100 µM | TGI [21]: > 100 µM | TGI [43]: > 100 µM | TGI [24]: > 100 µM | TGI [25]: > 100 µM | TGI [44]: > 100 µM | TGI [45]: > 100 µM | TGI [26]: > 100 µM | TGI [27]: > 100 µM | TGI [46]: > 100 µM | TGI [47]: > 100 µM | TGI [28]: > 100 µM | TGI [48]: > 100 µM | TGI [29]: > 100 µM | TGI [49]: > 100 µM | TGI [30]: > 100 µM | TGI [31]: > 100 µM

COc1ccc2c(c1)CC[C@@H]1C2CC[C@]2(C)C(=O)N(CCN3CCCC3)C(=O)CC12 (stereo partly drawn)
TGI [1]: > 100 µM | TGI [2]: 52.7 µM | TGI [4]: > 100 µM | TGI [5]: 49.9 µM | TGI [6]: > 100 µM | TGI [50]: 35.8 µM | TGI [7]: > 100 µM | TGI [34]: 89.6 µM | TGI [35]: 87.1 µM | TGI [8]: 35.7 µM | TGI [36]: > 100 µM | TGI [9]: 35.1 µM | TGI [10]: 70.1 µM | TGI [11]: 45.2 µM | TGI [12]: 66.6 µM | TGI [51]: > 100 µM | TGI [14]: > 100 µM | TGI [16]: > 100 µM | TGI [39]: 37.6 µM | TGI [17]: > 100 µM | TGI [40]: 42.1 µM | TGI [41]: 34.4 µM | TGI [42]: 31.5 µM | TGI [18]: 81.8 µM | TGI [19]: 34.8 µM | TGI [20]: > 100 µM | TGI [22]: > 100 µM | TGI [43]: 55 µM | TGI [24]: > 100 µM | TGI [25]: 86.7 µM | TGI [44]: 76.4 µM | TGI [26]: 57.7 µM | TGI [27]: > 100 µM | TGI [46]: 38.7 µM | TGI [28]: 38.9 µM | TGI [48]: > 100 µM | TGI [29]: 31.1 µM | TGI [49]: 32.2 µM | TGI [30]: > 100 µM

C=C[C@@]1(C)CC2(C=C(CO)C(O)O2)Oc2c1c(=O)oc1cccc(C)c21 (stereo partly drawn)
TGI [1]: 51.8 µM | TGI [32]: 25.3 µM | TGI [2]: 4.82 µM | TGI [3]: 43.5 µM | TGI [4]: 25.6 µM | TGI [5]: 19 µM | TGI [6]: 12.2 µM | TGI [33]: 3.74 µM | TGI [50]: 3.8 µM | TGI [7]: 33.9 µM | TGI [35]: 28.8 µM | TGI [52]: 7.17 µM | TGI [36]: 9.66 µM | TGI [9]: 23.1 µM | TGI [37]: 12 µM | TGI [10]: 7.46 µM | TGI [11]: 5.12 µM | TGI [53]: 29.1 µM | TGI [12]: 33.8 µM | TGI [54]: 13.7 µM | TGI [38]: 15.9 µM | TGI [51]: 21.2 µM | TGI [55]: 15.2 µM | TGI [56]: 15.6 µM | TGI [57]: 32.7 µM | TGI [13]: 7.98 µM | TGI [14]: 7.75 µM | TGI [58]: 23.9 µM | TGI [16]: 21.3 µM | TGI [39]: 26.9 µM | TGI [17]: 33.2 µM | TGI [59]: 10.2 µM | TGI [40]: > 75.1 µM | TGI [41]: 3.82 µM | TGI [42]: 26.7 µM | TGI [18]: 40.2 µM | TGI [19]: 21.9 µM | TGI [21]: 35.2 µM | TGI [22]: 36 µM | TGI [23]: 35.5 µM | TGI [60]: 40.1 µM | TGI [61]: 42.9 µM | TGI [24]: 18.4 µM | TGI [62]: 44.6 µM | TGI [25]: 8.86 µM | TGI [63]: 10.3 µM | TGI [45]: 3.65 µM | TGI [26]: 5.78 µM | TGI [27]: 45.2 µM | TGI [46]: 35 µM | TGI [64]: 14.2 µM | TGI [47]: 9.72 µM | TGI [28]: 25.5 µM | TGI [48]: 12.8 µM | TGI [65]: 25.1 µM | TGI [29]: 12.1 µM | TGI [49]: 21.7 µM | TGI [30]: 47.3 µM | TGI [31]: 68.7 µM
